Source: patent US20250064707A1, “PEPTIDE HAVING ANTI-AGING ACTIVITY, AND USE THEREOF” (CAREGEN CO., LTD., priority 2021, published 2025)

Tests used:
[1] = system: HaCaT cells; experiment: RT-PCR expression of skin barrier genes (SIRT1, AQP3) in keratinocytes; format: cell-based, human; conditions: peptide 10, 50, 100 μM, 24 hours
Protocol: First, HaCaT cells were seeded in a 6-well plate at a cell density of 3×10^5 cell/well, and then the cells were cultured in DMEM medium containing 10% fetal bovine serum (FBS) for 24 hours. The cultured cells were washed once with serum free DMEM medium, and then the peptide of the present invention was mixed in 1 mL of the serum free DMEM medium at each of concentrations of 10, 50, and 100 μM, and dispensed into the cells. A positive control (PC) was treated with 100 nM of EGF instead of the above peptide. The cells were cultured in a CO2 incubator at 37° C. for 24 hours.
The cultured cells were washed twice with PBS, and then RNA was extracted from the cells using easy blue (iNtRON, Cat. No.: 17061, Korea). The extracted RNA was subjected to RT reaction using a kit (enzynomics, Cat. No.: RT200, Korea). Thereafter, RT-PCR was performed using a PCR kit (enzynomics, Cat. No.: R581T, Korea). The sequences of the primers of SIRT1 and AQP3 used in RT-PCR are shown in [Table 3]. The sequence of the primer of GAPDH used to compare the total RNA amount of each treatment group is shown in [Table 2].

[2] = system: HaCaT cells; experiment: Western blot of apoptotic-inducing factors (cleaved PARP-1, cleaved Caspase-3) increased by UVB irradiation; format: cell-based, human; conditions: peptide 10, 50, 100 μM, 15 J/cm^2 UVB, 24 hours
Protocol: Expression of the apoptotic-inducing factors increases when irradiated with UV. Therefore, it was confirmed whether the photoaging phenomenon of the cells was inhibited and the damaged cells were regenerated by confirming whether the increased expression levels of the apoptotic-inducing factors such as cleaved PARP-1 and cleaved Caspase-3 decreased again when treated with the peptide of the present invention.
First, HaCaT cells were seeded in a 6-well plate at a cell density of 5×10^5 cell/well, and then the cells were cultured in DMEM medium containing 10% fetal bovine serum (FBS) for 24 hours. The cultured cells were washed once with serum free DMEM medium, and then the peptide of the present invention was mixed in 1 mL of the serum free DMEM medium at each of concentrations of 10, 50, and 100 μM, and dispensed into the cells. A positive control (PC) was treated with 2.5 mM of N-acetylcysteine (NaC) instead of the above peptide.
The cells were cultured in a CO2 incubator at 37° C. for 1 hour, the medium of the cultured cells was transferred to a tube, 1 mL of PBS was added, and then irradiation was performed with 15 J/cm^2 of UVB using a UV irradiator (VILBER LOURMAT, Cat No.: 3102-BSU, France). After removing PBS, 900 μL of the medium transferred to the tube was added again, and culture was performed in a CO2 incubator at 37° C. for 24 hours. […]

[3] = system: NIH3T3 cells (mouse fibroblast cell line); experiment: RT-PCR expression of ECM component genes (Col1a1, fibronectin, elastin) in fibroblasts; format: cell-based; conditions: peptide 10, 50, 100 μM, 24 hours, RT-PCR vs GAPDH
Protocol: First, NIH3T3 cells (mouse fibroblast cell line) were seeded in a 6-well plate at a cell density of 5×10^5 cell/well, and then the cells were cultured in DMEM medium containing 10% fetal bovine serum (FBS) for 24 hours. The cultured cells were washed once with serum free DMEM medium, and the peptide of the present invention was mixed in 1 mL of the serum free DMEM medium at each of concentrations of 10, 50, and 100 μM, and dispensed into the cells. A positive control (PC) was treated with 100 nM of bFGF instead of the above peptide. The cells were cultured in a CO2 incubator at 37° C. for 24 hours.
The cultured cells were washed twice with PBS, and RNA was extracted from the cells using easy blue (iNtRON, Cat. No.: 17061, Korea). The extracted RNA was subjected to RT-PCR using an RNA kit (enzynomics, Cat. No.: P581T, Korea). The sequences of the primers of collagen (Col1a1), fibronectin, and elastin used in RT-PCR and the sequence of the primer of GAPDH used to compare the total RNA amount of each treatment group are shown in [Table 2].

[4] = system: HaCaT cells; experiment: Intracellular reactive oxygen species after UVB irradiation (DCFH-DA, FACS); format: cell-based, human; conditions: peptide 10, 50, 100 μM, 1 hour before 15 J/cm^2 UVB, 24 hours after
Protocol: The reactive oxygen species level increases when UV is irradiated. Therefore, it was confirmed whether the reactive oxygen species level decreased again and the aging phenomenon caused by oxidative stress in cells was inhibited when treated with the peptide of the present invention.
First, HaCaT cells were seeded in a 6-well plate at a cell density of 5×10^5 cell/well, and then the cells were cultured in DMEM medium containing 10% fetal bovine serum (FBS) for 24 hours. The cultured cells were washed once with serum free DMEM medium, and then the peptide of the present invention was mixed in 1 mL of the serum free DMEM medium at each of concentrations of 10, 50, and 100 μM, and dispensed into the cells. A positive control (PC) was treated with 25 μM of Trolox instead of the above peptide.
The cells were cultured in a CO2 incubator at 37° C. for 1 hour. The medium of the cultured cells was transferred to a tube, 1 ml of PBS was added, and irradiation was performed with 15 J/cm^2 of UVB using a UV irradiator (VILBER LOURMAT, Cat No.: 3102-BSU, France). After removing PBS, 900 μL of the medium transferred to the tube was dispensed, and culture was performed in a CO2 incubator at 37° C. for 24 hours. […] After centrifugation, the cells were washed with PBS, and a fluorescence value was measured through FACS.

[5] = system: HaCaT cells; experiment: RT-PCR expression of SIRT1 and AQP3 decreased by UVB irradiation; format: cell-based, human; conditions: peptide 10, 50, 100 μM, 15 J/cm^2 UVB, 24 hours
Protocol: The expression of genes related to the skin barrier strengthening function is inhibited when irradiated with UV.
First, HaCaT cells were seeded in a 6-well plate at a cell density of 3×10^5 cell/well, and then the cells were cultured in DMEM medium containing 10% fetal bovine serum (FBS) for 24 hours. The cultured cells were washed once with serum free DMEM medium, and then the peptide of the present invention was mixed in 1 mL of the serum free DMEM medium at each of concentrations of 10, 50, and 100 μM, and dispensed into the cells. A positive control (PC) was treated with 2.5 mM of N-acetylcysteine (NaC) instead of the above peptide. The cells were cultured in a CO2 incubator at 37° C. for 1 hour.
The cultured cells were washed twice with PBS, 1 ml of PBS was added, and irradiation was performed with 15 J/cm^2 of UVB using a UV irradiator (VILBER LOURMAT, Cat No.: 3102-BSU, France). After removing PBS, 900 μL of the medium transferred to the tube was dispensed, and culture was performed in a CO2 incubator at 37° C. for 24 hours. The cultured cells were washed twice with PBS, and then RNA was extracted from the cells using easy blue (iNtRON, Cat. No.: 17061, Korea). The extracted RNA was subjected to an RT reaction using an RNA kit (enzynomics, Cat. No.: P581T, Korea). Thereafter, RT-PCR was performed using a PCR kit (enzynomics, Cat. No.: R581T, Korea). […]

[6] = system: HaCaT cells (human keratinocyte cell line); experiment: Collagen ELISA and hyaluronic acid ELISA of culture medium, keratinocytes; format: cell-based; conditions: peptide 50 μM, 100 μM, 72 hours
Protocol: (§1) First, NIH3T3 cells and HaCaT cells (human keratinocyte cell line) were seeded in a 24-well plate at a cell density of 1×10^4 cell/well, and then the cells were cultured in DMEM medium containing 10% fetal bovine serum (FBS) for 24 hours. The cultured cells were washed once with serum free DMEM medium, and the peptide of the present invention was mixed in 2 mL of the serum free DMEM medium at each of concentrations of 50 μM, 100 μM, and 5 ng/ml, and dispensed into three wells by 500 μL per condition. The NIH3T3 cells were treated with 5 ng/ml of TGF-β1 instead of the above peptide as a positive control (PC). The HaCaT cells were treated with 100 nM of IGF-1 instead of the above peptide as a PC. The cells were cultured in a CO2 incubator at 37° C. for 72 hours.
(§2) The medium of the cultured NIH3T3 and HaCaT cells was centrifuged to settle a suspended matter, a supernatant was transferred to an e-tube, and then each of ELISA (abcam, Cat No.: ab210579, UK) and hyaluronic acid (HA) ELISA (ECHELON biosciences, Cat No.: K-1200, USA) was performed using the same.

[7] = system: NIH3T3 cells; experiment: Collagen ELISA and hyaluronic acid ELISA of culture medium, fibroblasts; format: cell-based, mouse; conditions: peptide 50 μM, 100 μM, 72 hours
Protocol: as §1, §2

Sequence: EYIPNRVCRR [SEQ ID NO: 1]
- mRNA level of AQP3 [1]: increased
- mRNA level of SIRT1 [1]: increased
- expression of Cleaved Caspase-3 increased by UV irradiation [2]: inhibited the expression
- expression of Cleaved PARP-1 increased by UV irradiation [2]: inhibited the expression
- expression of the Col1a1 gene [3]: gradually increased as a concentration of the peptide increased
- expression of the elastin gene [3]: gradually increased as a concentration of the peptide increased
- expression of the fibronectin gene [3]: gradually increased as a concentration of the peptide increased
- intracellular reactive oxygen species level increased by UV irradiation [4]: decreased
- mRNA level of AQP3 decreased by UV irradiation [5]: increased again
- mRNA level of SIRT1 decreased by UV irradiation [5]: increased again
- amount of collagen protein ([6]; ELISA of medium (FIG. 2B)): gradually increased as a concentration of the peptide increased
- amount of hyaluronic acid ([6]; HA ELISA of medium (FIG. 2B)): gradually increased as a concentration of the peptide increased
- amount of collagen protein ([7]; ELISA of medium (FIG. 2A)): gradually increased as a concentration of the peptide increased
- amount of hyaluronic acid ([7]; HA ELISA of medium (FIG. 2A)): gradually increased as a concentration of the peptide increased
